From patent US20100041700A1, “Substituted 1-(Azolin-2-yl)-Amino-1,2-Heterocyclyl-Ethane Compounds For Combating Pests” (BASF SE, priority 2006, published 2010)

What was measured:
[1] = tested on: Cowpea Aphid (Aphis craccivora); test: Cowpea aphid (Aphis craccivora) spray test on potted cowpea plants; assay type: in vivo; settings: in comparison with untreated controls, population reduction recorded after 24, 72 and 120 hours, read-out: mortality against cowpea aphid
Experimental: B.1. Cowpea Aphid (Aphis craccivora)
The active compounds were formulated in 50:50 acetone:water. Potted cowpea plants colonized with 100-150 aphids of various stages were sprayed after the pest population has been recorded. Population reduction was recorded after 24, 72, and 120 hours.

[2] = tested on: Green Peach Aphid (Myzus persicae); test: Green peach aphid (Myzus persicae) leaf dip test on pepper plants; assay type: in vivo; settings: foliar, 120 h, in comparison with untreated controls, determined after 5 days, read-out: mortality against green-peach aphid
Experimental: B.2. Green Peach Aphid (Myzus persicae)
Pepper plants in the 2nd leaf-pair stage (variety ‘California Wonder’) were infested with approximately 40 laboratory-reared aphids by placing infested leaf sections on top of the test plants. The leaf sections were removed after 24 hours. The leaves of the intact plants were dipped into gradient solutions of the test compound. Aphid mortality on the treated plants, relative to mortality on check plants, was determined after 5 days.

Cc1ccsc1C(Cc1ccncc1)NC1=NCCS1 (stereo not drawn) [C.I.9]
mortality at 300 ppm [1]: > 80%

Brc1ccsc1C(Cc1ccncc1)NC1=NCCS1 (stereo not drawn) [C.I.10]
mortality at 300 ppm [2]: > 80%

c1ccc(CC(NC2=NCCS2)c2cccs2)nc1 (stereo not drawn) [C.I.12]
mortality at 300 ppm [1]: > 80%
